In patent publication EP1921072A1, “1,2,3-Triazole derivatives as cannabinoid-receptor modulators” (Laboratorios del Dr. Esteve S.A., priority 2006, dated 2008):

Each compound was assayed against T1, CB1-Receptor (Homo sapiens, UniProt P21554) (assay: In-vitro determination of affinity to CB1 receptor (radioligand [3H]-CP55940 binding)). Conditions: compound at 10^-6 M, transfected human CB1 receptors.
T1 construct: purchased Receptor Biology, Inc
Experimental: The in-vitro determination of the affinity of the inventive substituted pyrazoline compounds to CB1/CB2-receptors is carried out as described in the publication of Ruth A. Ross, Heather C. Brockie et al., "Agonist-inverse agonist characterization at CB1 and CB2 cannabinoid receptors of L-759633, L759656 and AM630", British Journal of Pharmacology, 126, 665-672, (1999), whereby the transfected human CB1 and CB2 receptors of Receptor Biology, Inc. are used. The radioligand used for both receptors is [^3H]-CP55940. The respective parts of the description are hereby incorporated by reference and forms part of the present disclosure.
The affinity of the inventive substituted pyrazoline compounds to CB1/CB2 receptors was determined as described above.

T1 sequence (P21554 whole entry): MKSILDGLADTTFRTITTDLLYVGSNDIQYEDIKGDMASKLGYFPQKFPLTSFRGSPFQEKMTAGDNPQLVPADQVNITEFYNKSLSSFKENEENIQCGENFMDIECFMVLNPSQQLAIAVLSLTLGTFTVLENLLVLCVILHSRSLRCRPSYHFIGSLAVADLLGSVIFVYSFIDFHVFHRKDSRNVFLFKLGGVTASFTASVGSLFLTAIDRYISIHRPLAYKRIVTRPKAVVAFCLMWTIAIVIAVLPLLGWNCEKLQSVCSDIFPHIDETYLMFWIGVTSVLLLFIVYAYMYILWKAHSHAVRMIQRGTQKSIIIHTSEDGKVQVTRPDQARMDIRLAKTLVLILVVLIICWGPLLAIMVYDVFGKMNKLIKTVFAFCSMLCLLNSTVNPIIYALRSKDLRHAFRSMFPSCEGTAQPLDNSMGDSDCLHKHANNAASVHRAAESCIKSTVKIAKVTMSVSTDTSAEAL

Row | SMILES | inhibition at 1 µM [%]
1 | CCCCCn1nnc(-c2ccccc2)c1-c1ccc(Cl)cc1 [Compound 10c, 5-(p-Chlorophenyl)-1-pentyl-4-phenyl-1H-[1,2,3]triazole] | 21.1
2 | Fc1cc(Br)ccc1-c1cnn(Cc2ccccc2)n1 [Compound 15a, 2-Benzyl-4-(4-bromo-2-fluorophenyl)-2H-[1,2,3]triazole] | 26.6
3 | Clc1ccc(-c2nnn(Cc3ccccc3)c2-c2ccccc2)cc1 [Compound 14b, 1-Benzyl-4-(p-chlorophenyl)-5-phenyl-1H-[1,2,3]triazole] | 24.6
4 | Clc1ccc(-c2nn(C3C4CC5CC(C4)CC3C5)nc2-c2ccccc2)cc1 (stereo not shown) [Compound 19a, 2-Adamantyl-4-(p-chlorophenyl)-5-phenyl-2H-[1,2,3]triazole] | 23.1
5 | Clc1ccc(-c2nn(Cc3ccc(Br)cc3)nc2-c2ccccc2)cc1 [Compound 13a, 2-(p-Bromobenzyl)-4-(p-chlorophenyl)-5-phenyl-2H-[1,2,3]triazole] | 45.6
6 | CCCCCn1nc(-c2ccccc2)c(-c2ccc(Cl)cc2)n1 [Compound 10a, 4-(p-Chlorophenyl)-2-pentyl-5-phenyl-2H-[1,2,3]triazole] | 22.8
7 | CCCCCn1nc(-c2ccc(C)cc2)c(-c2ccc(Cl)cc2Cl)n1 [Compound 11a, 4-(2,4-Dichlorophenyl)-2-pentyl-5-p-tolyl-2H-[1,2,3]triazole] | 29.8
